# Measurements published in paper PMC4811560, “Kinetic Characterisation of a Single Chain Antibody against the Hormone Abscisic Acid: Comparison with Its Parental Monoclonal” (PLoS ONE, 2016).
# Like-named read-outs stand apart in the source and are kept apart here. Marks after values point to notes of the source that are not given here.
# Key:
# [1] = test system: MBP-antiABA-scFv; assay: SPR affinity in solution (competitive titration) of test compounds for the scFv; assay type: binding, mouse; conditions: for Cross-reactivity MBP-aABA-scFv: from KA relative to (+)-ABA = 100%; for Affinity in solution, MBP-aABA-scFv, KA / Kd: scFv 25 nM, 1 hour at 25°C; for Kd: read-out: Affinity in solution, MBP-aABA-scFv, KD
# Procedure: All heterogeneous phase (surface) techniques can be subject to artefacts introduced by ligand immobilisation or e.g. biotinylation of the free ligand. […] The equilibrium mixtures (1 hour at 25°C) were injected over an SA chip surface saturated with b-PEG-ABA at high ligand density, and the initial binding rate of free scFv was measured. The concentration of free scFv from each equilibrium mixture was determined from a calibration curve (S6A Fig) and plotted against the concentration of free (+)-ABA. Data points were fitted to the solution affinity model in BIAevaluation (S5B Fig). […] Thus, the kinetics of the fusion protein have been described with confidence. Next these were compared with the characteristics of both cleaved, free scFv and with the parental monoclonal immunoglobulin.
# The selectivity of the scFv for (+)-ABA was tested by determining the affinity in solution for structurally or physiologically related compounds. […] The concentration of free scFv in the equilibrium mixtures was determined and plotted against concentration of competitor. Affinity was determined by fitting the data points to a solution affinity model (Fig 4). The KA value was determined for each compound, and then percentage cross-reactivity was calculated by expressing each KA value relative to the KA for (+)-ABA. Values were compared to literature data for the parental monoclonal antibody (Table 3).
# Fig 4 Cross-reactivity of the anti-ABA-scFv. […] The concentration of free scFv in the equilibrium mixtures was plotted against the concentration of test compound. The structures of each competitor are shown framed in the same colours as the data in the dose graph. There is no box for the racemic mix. The colour code for each compound is shown on the left of the plot.
# Figure S6. Affinity in solution. (a) A calibration curve was generated by injecting known concentrations of free MBP-antiABA-scFv (0.1 nM – 50 nM) over the surface of a SA sensor chip saturated with b -PEG-ABA, plotting the initial binding rate against concentration and fitting the data points to a 4 -parameter equation. (b) MBP- […]
# 1 nM, 5 nM, 10 nM, 50 nM, 100 nM, 200 nM, 500 nM), and the mixtures incubated to equilibrium (1 hour at 25°C). The concentration of free MBP -antiABA-scFv in the equilibrium mixtures was then determined from the calibration curve. The concentration of free MBP -antiABA-scFv in the equilibrium mixtures was plotted against (+)-ABA concentration and the data points were fitted to a solution affinity […]
# (1 picture or pasted object on this page, not shown here)
# [2] = test system: mAb 15-I-C5; conditions: cited from earlier work
# [3] = no reference given; cited from earlier work
# [4] = radiolabel displacement curves, 50% displacement, ref Walker-Simmons et al., 1991
# [5] = radiolabel displacement curves, 50% displacement, ref Phytodetek manual m100.2, Agdia Inc.
Compound,Cross-reactivity MBP-aABA-scFv [1] [%],"Affinity in solution, MBP-aABA-scFv, KA [1] [M⁻¹]",Kd [1] [µM],"Cross-reactivity mAb 15-I-C5 [2, 5]",other results
"CC(C=CC1C(C)=CC(=O)CC1(C)C)=CC(=O)O (mixture of isomers) [2-cis-(R,S)-(±)-1’-deoxy-ABA]",0.309,917000,1.09,–,"Cross-reactivity MBP-aABA-scFv ([1]; listed as 1ʹ-deoxy-ABA): 0.3%; affinity, fold lower than that for (+)-ABA ([1]; scFv): over 100 fold"
"CC(C=CC1(O)C(C)=CC(=O)CC1(C)C)=CC(=O)O (racemic) [2-cis-(R,S)-(±)-ABA]",44.25,1.31e+08,0.00761,–,"Cross-reactivity MBP-aABA-scFv ([1]; listed as (±)-ABA): 44.3%; Cross-reactivity mAb 15-I-C5 [2, 4]: 49.4 ^d %"
"NCCCCC(N)C(=O)O (racemic) [D,L-Lysine]",0.00006,163,6120,–,Cross-reactivity MBP-aABA-scFv ([1]; listed as lysine): lower than 10^−4%
CC1=CC(=O)CC(C)(C)[C@@]1(O)/C=C/C(C)=C\C(=O)O [2-cis-(S)-(+)-ABA],100,2.96e+08,0.00337,–,"affinity relative to the inactive (-)-ABA ([1]; scFv): three orders of magnitude higher; Cross-reactivity mAb 15-I-C5 ([2]; reference value, determined by other investigators, no source marked): 100%"
CC1=CC(=O)CC(C)(C)[C@@]1(O)/C=C/C(C)=C/C(=O)O [2-trans-(S)-(+)-ABA],–,–,–,0%,"Cross-reactivity mAb 15-I-C5 [2, 4]: 0.98%"
"CC1=CC(=O)CC(C)(C)C1(O)/C=C/C(C)=C\C(=O)O (centres unmarked) [ABA, abscisic acid]",–,–,–,–,pKa [3]: 4.75
CC(C)=CCC/C(C)=C/CC/C(C)=C/CO [All-trans-Farnesol],0.00002,58.4,17100,0 ^c %,Cross-reactivity MBP-aABA-scFv ([1]; listed as farnesol): lower than 10^−4%
O=C(O)c1ccccc1 [Benzoic acid],0.00003,91.7,10900,–,Cross-reactivity MBP-aABA-scFv ([1]; listed as benzoic acid): lower than 10^−4%
CC(C=CC1(O)C2(C)COC1(C)CC(O)C2)=CC(=O)O (centres unmarked) [Dihydrophaseic acid],0.156,462000,2.17,<0.1 ^c %,"Cross-reactivity MBP-aABA-scFv ([1]; listed as dihydrophaseic acid): 0.16%; affinity, fold lower than that for (+)-ABA ([1]; scFv): over 100 fold"
C=C1C[C@]23C[C@@]1(O)CC[C@H]2[C@@]12C=C[C@H](O)[C@@](C)(C(=O)O1)[C@H]2[C@@H]3C(=O)O [Gibberellic acid],0.00001,30.4,32800,–,Cross-reactivity MBP-aABA-scFv ([1]; listed as gibberellic acid): lower than 10^−4%
O=C(O)Cc1c[nH]c2ccccc12 [Indole-3-acetic acid],0.00005,138,7230,–,Cross-reactivity MBP-aABA-scFv ([1]; listed as auxin): lower than 10^−4%
CC(=C/C(=O)O)/C=C/[C@]1(O)[C@@]2(C)CO[C@]1(C)CC(=O)C2 [Phaseic acid],0.029,88200,11.3,<0.1 ^c %,"Cross-reactivity MBP-aABA-scFv ([1]; listed as phaseic acid): 0.03%; affinity, fold lower than that for (+)-ABA ([1]; scFv): over 100 fold"
CC(C=CC12OC1(C)CC(O)CC2(C)C)=CC=O (centres unmarked) [Xanthoxin],0.0002,617,1620,0 ^c %,Cross-reactivity MBP-aABA-scFv ([1]; listed as xanthoxin): lower than 10^−4%
